Experimental data as given in PubChem BioAssay AID1963962 (Molecular Pharmacology Branch, DTP, NCI, 2024).

Tested on: 967376-340-R-J2-PDC multicell spheroid viability
Test: Anticancer human tumor 967376-340-R-J2-PDC patient-derived colon adenocarcinoma cell line growth inhibition [PI3K]
Details: for IC50: curve of first compound; for viability, T/C: stronger effect = lower value
Method in brief: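 Tumor cells were combined with HUVEC and MSCs into spheroids, then dosed with PI3K-inhibitor combinations over half-log ranges capped near clinical Cmax or 10 microM.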

[1] = second compound 0.00316 µM, first compound 0.0316 µM
[2] = second compound 0.00316 µM, first compound 0.1 µM
[3] = second compound 0.01 µM, first compound 0.0316 µM
[4] = second compound 0.01 µM, first compound 0.1 µM
[5] = second compound 0.0316 µM, first compound 0.0316 µM
[6] = second compound 0.0316 µM, first compound 0.1 µM
[7] = second compound 0.1 µM, first compound 0.0316 µM
[8] = second compound 0.1 µM, first compound 0.1 µM
[9] = second compound 0.316 µM, first compound 0.0316 µM
[10] = second compound 0.316 µM, first compound 0.1 µM
[11] = second compound 1 µM, first compound 0.0316 µM
[12] = second compound 1 µM, first compound 0.1 µM
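Also: spheroids exposed to agents for 7 days before read-out.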
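For viability, T/C in this document: luminescence used as surrogate of cell viability.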

## CC(C)n1nc(-c2ccc3oc(N)nc3c2)c2c(N)ncnc21 + COc1c(OCCCN2CCOCC2)ccc2c3n(c(=NC(=O)c4cnc(N)nc4)nc12)CCN3
Second compound 0.00316 µM
  IC50: > 0.1 µM
Second compound 0.01 µM
  IC50: 0.0981 µM
Second compound 0.0316 µM
  IC50: 0.0329 µM
Second compound 0.1 µM
  IC50: 0.0177 µM
Second compound 0.316 µM
  IC50: 0.000541 µM
Second compound 1 µM
  IC50: < 0.000316 µM
Second compound 0.00316 µM, first compound 0.000316 µM
  viability, T/C: 85.7%
Second compound 0.00316 µM, first compound 0.001 µM
  viability, T/C: 106%
Second compound 0.00316 µM, first compound 0.00316 µM
  viability, T/C: 88.7%
Second compound 0.00316 µM, first compound 0.01 µM
  viability, T/C: 74.1%
[1]
  viability, T/C: 76.5%
[2]
  viability, T/C: 54.8%
Second compound 0.01 µM, first compound 0.000316 µM
  viability, T/C: 109%
Second compound 0.01 µM, first compound 0.001 µM
  viability, T/C: 97.2%
Second compound 0.01 µM, first compound 0.00316 µM
  viability, T/C: 81%
Second compound 0.01 µM, first compound 0.01 µM
  viability, T/C: 91.1%
[3]
  viability, T/C: 67.3%
[4]
  viability, T/C: 47.1%
Second compound 0.0316 µM, first compound 0.000316 µM
  viability, T/C: 85.9%
Second compound 0.0316 µM, first compound 0.001 µM
  viability, T/C: 83.9%
Second compound 0.0316 µM, first compound 0.00316 µM
  viability, T/C: 65.4%
Second compound 0.0316 µM, first compound 0.01 µM
  viability, T/C: 63.8%
[5]
  viability, T/C: 50%
[6]
  viability, T/C: 39.9%
Second compound 0.1 µM, first compound 0.000316 µM
  viability, T/C: 58%
Second compound 0.1 µM, first compound 0.001 µM
  viability, T/C: 49.5%
Second compound 0.1 µM, first compound 0.00316 µM
  viability, T/C: 53.9%
Second compound 0.1 µM, first compound 0.01 µM
  viability, T/C: 51.5%
[7]
  viability, T/C: 47.9%
[8]
  viability, T/C: 27%
Second compound 0.316 µM, first compound 0.000316 µM
  viability, T/C: 61.5%
Second compound 0.316 µM, first compound 0.001 µM
  viability, T/C: 36.3%
Second compound 0.316 µM, first compound 0.00316 µM
  viability, T/C: 38%
Second compound 0.316 µM, first compound 0.01 µM
  viability, T/C: 41.4%
[9]
  viability, T/C: 37.2%
[10]
  viability, T/C: 21.9%
Second compound 1 µM, first compound 0.000316 µM
  viability, T/C: 34.9%
Second compound 1 µM, first compound 0.001 µM
  viability, T/C: 28.2%
Second compound 1 µM, first compound 0.00316 µM
  viability, T/C: 32.1%
Second compound 1 µM, first compound 0.01 µM
  viability, T/C: 29.8%
[11]
  viability, T/C: 31.6%
[12]
  viability, T/C: 26.5%

## CC1(C)CCC(CN2CCN(c3ccc(C(=O)NS(=O)(=O)c4ccc(NCC5CCOCC5)c([N+](=O)[O-])c4)c(Oc4cnc5[nH]ccc5c4)c3)CC2)=C(c2ccc(Cl)cc2)C1 + COc1c(OCCCN2CCOCC2)ccc2c3n(c(=NC(=O)c4cnc(N)nc4)nc12)CCN3
Second compound 0.00316 µM
  IC50: > 10 µM
Second compound 0.01 µM
  IC50: > 10 µM
Second compound 0.0316 µM
  IC50: 7.86 µM
Second compound 0.1 µM
  IC50: 1.2 µM
Second compound 0.316 µM
  IC50: < 0.0316 µM
Second compound 1 µM
  IC50: < 0.0316 µM
[1]
  viability, T/C: 92.6%
[2]
  viability, T/C: 82%
Second compound 0.00316 µM, first compound 0.316 µM
  viability, T/C: 94.8%
Second compound 0.00316 µM, first compound 1 µM
  viability, T/C: 108%
Second compound 0.00316 µM, first compound 3.16 µM
  viability, T/C: 81.6%
Second compound 0.00316 µM, first compound 10 µM
  viability, T/C: 64.3%
[3]
  viability, T/C: 83.2%
[4]
  viability, T/C: 87.6%
Second compound 0.01 µM, first compound 0.316 µM
  viability, T/C: 82.9%
Second compound 0.01 µM, first compound 1 µM
  viability, T/C: 75.8%
Second compound 0.01 µM, first compound 3.16 µM
  viability, T/C: 76.4%
Second compound 0.01 µM, first compound 10 µM
  viability, T/C: 55.8%
[5]
  viability, T/C: 76.9%
[6]
  viability, T/C: 73.6%
Second compound 0.0316 µM, first compound 0.316 µM
  viability, T/C: 63.6%
Second compound 0.0316 µM, first compound 1 µM
  viability, T/C: 67.2%
Second compound 0.0316 µM, first compound 3.16 µM
  viability, T/C: 62.6%
Second compound 0.0316 µM, first compound 10 µM
  viability, T/C: 46.1%
[7]
  viability, T/C: 56.6%
[8]
  viability, T/C: 67%
Second compound 0.1 µM, first compound 0.316 µM
  viability, T/C: 44.2%
Second compound 0.1 µM, first compound 1 µM
  viability, T/C: 48.5%
Second compound 0.1 µM, first compound 3.16 µM
  viability, T/C: 54.6%
Second compound 0.1 µM, first compound 10 µM
  viability, T/C: 39.5%
[9]
  viability, T/C: 35.4%
[10]
  viability, T/C: 44.6%
Second compound 0.316 µM, first compound 0.316 µM
  viability, T/C: 31.2%
Second compound 0.316 µM, first compound 1 µM
  viability, T/C: 40%
Second compound 0.316 µM, first compound 3.16 µM
  viability, T/C: 37.4%
Second compound 0.316 µM, first compound 10 µM
  viability, T/C: 21.4%
[11]
  viability, T/C: 48.5%
[12]
  viability, T/C: 28.9%
Second compound 1 µM, first compound 0.316 µM
  viability, T/C: 35.2%
Second compound 1 µM, first compound 1 µM
  viability, T/C: 24.8%
Second compound 1 µM, first compound 3.16 µM
  viability, T/C: 30.9%
Second compound 1 µM, first compound 10 µM
  viability, T/C: 27.8%
